Source: US11951214B2, “Capsule formulations” (CHEMOCENTRYX, INC., priority 2018, dated 2024)
Values after ≈ are worked out from the molar mass of the structure shown. Read-outs that look alike come from different tables or passages of the source.

Test: Solubility of Compound 1 in alternative excipients/solvents (liquid formulations, cranberry juice dilution)
Assay type: physicochemical
Description: Liquid formulations of PEG400/EtOH and Compound 1 can be prepared using general methods for making liquid formulations known in the art. For example, Compound 1 was dissolved in EtOH with agitation and ambient temperature, then the desired amount of PEG400 was added to achieve the desired ratios.
The liquid formulations of the present example are prepared as described in Example 2. When additional excipients are included, they are added after dissolution of Compound 1 in ethanol.

Compound: Cc1ccc(NC(=O)[C@H]2CCCN(C(=O)c3c(C)cccc3F)[C@H]2c2ccc(NC3CCCC3)cc2)cc1C(F)(F)F [Compound 1, (2R,3 S)-2-(4-(cyclopentylamino)phenyl)-1-(2-fluoro-6-methylbenzoyl)-N-(4-methyl-3-(trifluoromethyl)phenyl)piperidine-3-carboxamide]
- solubility (Captisol in water (40% w/v), aqueous with cosolvent or surfactant or cyclodextrin, thermodynamic from solid, Captisol in water (40% w/v), read-out: Solubility): 0.01 mg/mL (≈ 0.0172 mM)
- Additional Observations (Captisol in water (40% w/v), overnight): API undissolved overnight even with warming to 60°.
- solubility (Cavitron W7 HP5 in water (40% w/v)): 0.05 mg/mL (≈ 0.086 mM)
- Additional Observations (Cavitron W7 HP5 in water (40% w/v), overnight): API undissolved overnight even with warming to 60°.
- Additional Observations (PEG400/EtOH/Cremophor EL (50/45/5 v/v), prepared 20 mg/mL formulation): A translucent solution with floating fine particles.
- Additional Observations (PEG400/EtOH/Cremophor EL (70/25/5 v/v), prepared 20 mg/mL formulation): A translucent solution.
- solubility (PEG400/EtOH/Solutol HS 15 (50/40/10 v/v), organic solvent or mixture, thermodynamic from solid, PEG400/EtOH/Solutol HS 15 (50/40/10 v/v), visually, against 30 mg/mL control solution, read-out: Solubility): ~30 mg/mL (≈ 51.6 mM)
- Additional Observations (PEG400/EtOH/Solutol HS 15 (50/40/10 v/v), ~30 mg/mL, overnight): few API particles left overnight, did not attempt
- solubility (PEG400/EtOH/Solutol HS 15 (50/45/5 v/v), organic solvent or mixture, thermodynamic from solid, PEG400/EtOH/Solutol HS 15 (50/45/5 v/v), visually, against 30 mg/mL control solution, read-out: Solubility): ~30 mg/mL (≈ 51.6 mM)
- Additional Observations (PEG400/EtOH/Solutol HS 15 (50/45/5 v/v), ~30 mg/mL, overnight): API particles left overnight, did not attempt cranberry
- Additional Observations (PEG400/EtOH/Solutol HS 15 (70/20/10 v/v), 20.4 mg/mL, in cranberry juice): Slow to precipitate with addition to cranberry juice.
- solubility (PEG400/EtOH/Solutol HS 15 (70/20/10 v/v), organic solvent or mixture, PEG400/EtOH/Solutol HS 15 (70/20/10 v/v), read-out: Solubility): 20.4 mg/mL (≈ 35.1 mM)
- Additional Observations (PEG400/EtOH/Solutol HS 15 (70/25/5 v/v), 20.0 mg/mL, in cranberry juice): Precipitate forms in cranberry juice.
- solubility (PEG400/EtOH/Solutol HS 15 (70/25/5 v/v), organic solvent or mixture, PEG400/EtOH/Solutol HS 15 (70/25/5 v/v), read-out: Solubility): 20 mg/mL (≈ 34.4 mM)
- solubility (PEG400/EtOH/Transcutol P (50/40/10 v/v), organic solvent or mixture, PEG400/EtOH/Transcutol P (50/40/10 v/v), second listing, read-out: Solubility): 20.2 mg/mL (≈ 34.7 mM)
- solubility (PEG400/EtOH/Transcutol P (50/40/10 v/v), organic solvent or mixture, thermodynamic from solid, PEG400/EtOH/Transcutol P (50/40/10 v/v), visually, against 30 mg/mL control solution, read-out: Solubility): ~30 mg/mL (≈ 51.6 mM)
- Additional Observations (PEG400/EtOH/Transcutol P (50/40/10 v/v), ~30 mg/mL, overnight): few API particles left overnight, did not attempt
- solubility (PEG400/EtOH/Transcutol P (50/45/5 v/v), organic solvent or mixture, PEG400/EtOH/Transcutol P (50/45/5 v/v), second listing, read-out: Solubility): 19.9 mg/mL (≈ 34.2 mM)
- solubility (PEG400/EtOH/Transcutol P (50/45/5 v/v), organic solvent or mixture, PEG400/EtOH/Transcutol P (50/45/5 v/v), visually, against 30 mg/mL control solution, read-out: Solubility): ~30 mg/mL (≈ 51.6 mM)
- Additional Observations (PEG400/EtOH/Transcutol P (50/45/5 v/v), ~30 mg/mL, overnight): few API particles left overnight, did not attempt
- solubility (PEG400/Propylene Glycol (50/50 v/v), organic solvent or mixture, PEG400/Propylene Glycol (50/50 v/v), read-out: Solubility): 10.9 mg/mL (≈ 18.7 mM)
- Additional Observations (PEG400/Propylene Glycol (50/50 v/v), overnight, then addition of cranberry juice): Somewhat dissolved overnight, however, precipitation
- solubility in control vehicle (control solution of PEG400/EtOH (50/50% v/v) with 30 mg/mL): Compound 1 is not fully soluble in control vehicle. A few
